In ChEMBL document CHEMBL1158688, “Synthesis and characterization of the 7-(4-aminomethyl-1H-1,2,3-triazol-1-yl) analogue of kabiramide C” (J Nat Prod, 2005):
The source made the active and inactive calls. No cut-off for these calls is given here.

species on record: Oryctolagus cuniculus; assay: Binding affinity to rabbit Prodan-labeled G-actin

Activity, active:
CO[C@H]([C@H](C)/C=C/N(C)C=O)[C@@H](C)C(=O)CC[C@H](C)[C@@H](C[C@@H]1OC(=O)CC(OC(N)=O)C[C@H](C)C[C@@H](n2cc(CNC(=O)OCC3c4ccccc4-c4ccccc43)nn2)[C@H](C)[C@@H](OC)c2coc(n2)-c2coc(n2)-c2coc(n2)/C=C/C[C@H](OC)[C@H]1C)OC (stereo partly drawn)
CO[C@H]([C@H](C)/C=C/N(C)C=O)[C@@H](C)C(=O)CC[C@H](C)[C@@H](C[C@@H]1OC(=O)CC(OC(N)=O)C[C@H](C)C[C@@H](N=[N+]=[N-])[C@H](C)[C@@H](OC)c2coc(n2)-c2coc(n2)-c2coc(n2)/C=C/C[C@H](OC)[C@H]1C)OC (stereo partly drawn)
CO[C@H]([C@H](C)/C=C/N(C)C=O)[C@@H](C)C(=O)CC[C@H](C)[C@@H](C[C@@H]1OC(=O)CC(OC(N)=O)C[C@H](C)C[C@@H](n2cc(CN)nn2)[C@H](C)[C@@H](OC)c2coc(n2)-c2coc(n2)-c2coc(n2)/C=C/C[C@H](OC)[C@H]1C)OC (stereo partly drawn)
